Measurements taken from patent US20120322654A1, “SYNERGISTIC FUNGICIDAL MIXTURES” (BASF SE, priority 2010, published 2012).

Tested on: Septoria tritici
Assay: Microtiter plate test, activity against Septoria tritici (leaf blotch on wheat)
Format: cell-based
Conditions: MTP, absorption at 405 nm 7 days after inoculation, 18° C
Protocol: The active compounds were formulated separately as a stock solution having a concentration of 10000 ppm in dimethyl sulfoxide.
Activity Against Septoria tritici, the Causal Agent of Leaf Blotch on Wheat
The stock solutions were mixed according to the ratio, pipetted onto a micro titer plate (MTP) and diluted with water to the stated concentrations. A spore suspension of Septoria tritici in an aqueous biomalt solution was then added. The plates were placed in a water vapor-saturated chamber at a temperature of 18° C. Using an absorption photometer, the MTPs were measured at 405 nm 7 days after the inoculation.
The measured parameters were compared to the growth of the active compound-free control variant (100%) and the fungus-free and active compound-free blank value to determine the relative growth in % of the pathogens in the respective active compounds.
The expected efficacies of active compound combinations were determined using Colby's formula (Colby, S. R., Calculating synergistic and antagonistic responses of herbicide combinations, Weeds, 15, pp. 20-22, 1967) and compared with the observed efficacies. […]

| SMILES | Observed efficacy (0.25 ppm) [%] | Observed efficacy (1 ppm) [%] |
| --- | --- | --- |
| O=C(Nc1ccccc1-c1ccc(Cl)cc1)c1cccnc1Cl [Boscalid, boscalid] | 34 | – |
| CC1(C)C(C=C(Cl)Cl)C1C(=O)OC(C#N)c1cccc(Oc2ccccc2)c1 (stereo not drawn) [alpha-Cypermethrin, alpha-cypermethrin] | – | 2 |
